{"source": "patent US10813931B2", "about": "“Methods and compositions relating to the treatment of cancer” (THE BRIGHAM AND WOMEN'S HOSPITAL, INC., priority 2013, dated 2020)", "key": {"[1]": {"system": "231 DTC and 468DTC", "assay": "Cell viability of DTC subsets with dasatinib, PI103, combination or DPNP", "format": "cell-based, human", "settings": "combination of PI103 and dasatinib (1:1), 48 h", "procedure": "(§1) Parent cells DTC or Parent^Phenocopy were generated as described and plated at a concentration of 1.5×10^5 in a clear bottom 96-well plate. Cells were exposed to indicated treatments ([…]) for 48 hours in serum containing medium. Following incubation, cells were washed 1 time with PBS and recovered in serum and phenol red-free RPMI or DMEM and subsequently treated with MTS following manufacturer protocol (Promega, Madison, Wis.). Drug sensitivity index (SI) was determined as follows: Cell viability was determined as % of control for treatment conditions of 10 nM, 100 nM 1000 nM and 10 μM to generate an average cell viability across these 4 drug concentrations. SI was calculated as a ratio of parent:DTC or parent:parent^phenocopy. SI=1 correlates to parental sensitivity, SI<1 correlates to resistance compared to parent cell line and SI>1 correlates to enhanced sensitivity to the indicated drug compared to the parent cell line at the same concentration average."}, "[2]": {"system": "231 parent and DTC", "assay": "Cell viability (MTS) and drug sensitivity index, 231 parent vs DTC vs 231Phenocopy", "format": "cell-based, human", "settings": "for cell viability of DTC, SFK and BCR-Abl inhibition separately and in combination: 231 DTC, PP2 and imatinib in combination", "procedure": "(§2) Following viability analyses conducted as described in supplemental data, drug sensitivity index (SI) was determined as follows: Cell viability was determined as % of control for treatment conditions of 10 nM, 100 nM 1000 nM and 10 μM to generate an average cell viability across these 4 drug concentrations. SI was calculated as a ratio of parent:DTC or parent:parent^phenocopy. SI=1 correlates to parental sensitivity, SI<1 correlates to resistance compared to parent cell line and SI>1 correlates to enhanced sensitivity to the indicated drug compared to the parent cell line at the same concentration average.\nas §1, with “Cells” for “Parent cells DTC or Parent^Phenocopy were generated as described and plated at a concentration of 1.5×10^5 in a clear bottom 96-well plate. Cells”"}, "[3]": {"system": "468 parent cells and a subset of DTC", "assay": "Survival curves of 468 parent cells and DTC exposed to chemotherapy", "format": "cell-based, human", "settings": "48 h exposure", "procedure": "MDA-MB-231, MDA-MB-468 were purchased from ATCC. For acute treatments, cells were plated at a density of 0.5-1×10^5 cells/ml and allowed to adhere for 24-48 hr. when cells reached ˜70% confluency they were treated with antitubulins at indicated concentrations for 4-24 hours and utilized for subsequent assays. To generate chemotherapy tolerant subset, cells were treated with indicated concentrations of chemotherapy (48). Following washes with PBS, adherent cells were trypsinized and re-plated at a density of 1.5-2×10^5 cells/ml and cultured in serum-containing medium. After 24 hours incubation, floating cells were removed and remaining cells were washed with 1×PBS and considered a subpopulation of chemotherapy-tolerant cells. A separate plate of control cells were maintained concurrently in serum containing medium and provided fresh media at every interval where DTC received fresh media. […]\nParent cells DTC or Parent^Phenocopy were generated as described and plated at a concentration of 1.5×10^5 in a clear bottom 96-well plate. […] Drug sensitivity index (SI) was determined as follows: Cell viability was determined as % of control for treatment conditions of 10 nM, 100 nM 1000 nM and 10 μM to generate an average cell viability across these 4 drug concentrations. SI was calculated as a ratio of parent:DTC or parent:parent^phenocopy. […]"}, "[4]": {"system": "DTC subsets derived from multiple cancer types", "assay": "Drug sensitivity index of dasatinib in DTC isolated from multiple cell lines", "format": "cell-based", "settings": "DTC from multiple cell lines vs parent, 48 h", "procedure": "as §2\nas §1, with “SI=1 correlates to parental sensitivity, SI<1 correlates to resistance compared to parent cell line and SI>1 correlates to enhanced sensitivity to the indicated drug compared to the parent cell line at the same concentration average.” left out"}, "[5]": {"system": "AKT signaling", "assay": "Western blot of phosphorylated and total Akt in 231 DTC", "format": "cell-based, human", "settings": "increasing doses, 4 h", "method": "Laemli sample buffer was prepared as a 5× solution containing β-mercaptoethanol as a reducing agent. Immunoprecipitaion was performed using both classic and direct IP kits purchased from Pierce following manufacturer protocols (Thermo Fisher inc. Rockford, Ill.). Briefly, cell lysates were prepared using IP/Lysis Buffer (Thermo Fisher inc. Rockford, Ill.) in the presence of 2×HALT protease/phosphatase inhibitor cocktail (Thermo Fisher inc. Rockford, Ill.). For classic Immunoprecipitation, lysates were combined with indicated antibodies for 48 hours at 4 C and combined with protein A/G agarose beads for 4 hours prior to elution with 2× Laemli Buffer at 100 C. Direct immunoprecipitation was performed following manufacturer protocol. Briefly, antibodies were covalently attached to agarose beads, lysate was combined with antibody-agarose bead conjugates for 24 hours prior to washes and elution with provided Elution Buffer. Protein samples were resolved by SDS-PAGE and transferred to PVDF membranes prior to incubation at 4 C with indicated primary antibodies. […] Optical densities of western blots were measured using ImageJ™ open source software (National Institutes of Health) and validated using Adobe CS5™."}, "[6]": {"system": "explant from stage IV, metastatic breast cancer patient", "assay": "Refractory stage IV metastatic breast cancer explant, caspase activation", "set-up": "species or system human", "settings": "combination of dasatinib with DTX, 48 h", "method": "Fresh tumor tissues were collected from breast cancer patients immediately after surgical resection at HCG cancer hospital, Bangalore, India. The tumor samples were transported to the laboratory at 4° C., in appropriate transport buffer within 60 minutes post-resection, for ex-vivo studies and molecular and pathological evaluation. Tissues were cut into thin sections and cultured in 96 well plate using optimized conditions (Radhakrishnan et al., 2013). Tumors were treated with a taxane-containing regimen (Docetaxel+Doxorubicin+Cyclophosphamide) or other drugs as indicated. DMSO was used as a vehicle control. After 48 hrs of treatment, tumor cell viability was measured and release of soluble cleaved caspase-3 and caspase-8 were determined.\nHuman Tumor tissues were fixed in Phos stop (Roche) containing 4% buffered formalin and embedded in paraffin. Prior to immunohistochemical staining of target proteins 4-μm-thick tissue sections mounted in poly L lysine coated glass slides were deparaffinized and rehydrated. Heat induced antigen retrieval was achieved using citrate buffer (pH7.8). […] Immunoreactivity was scored by intensity of staining (0, no staining, 1 weak; 2 moderate; 3 strong) and percentage of positive cells. By multiplying both values, a final score was calculated. […]"}, "[7]": {"system": "4T-1 mouse mammary carcinoma", "assay": "4T-1 tumor growth in Balb/C mice", "format": "in vivo", "procedure": "4-6 week old Balb/C mice (Charles River, Cambridge Mass.) were inoculated with 10^6 4 T-1 mouse mammary carcinoma cells in the left flank (Charles River, Cambridge Mass.). Mice identified with tumors were treated with docetaxel (DTX) or vehicle twice at 72 hour intervals at 10 mg/kg i.v. or 15 mg/kg i.p. and subsequently treated with dasatinib i.p. or nanoparticles i.v. 72 hours following the final DTX dose. Tumors were harvested at indicated time points and evaluated for protein phosphorylation and expression. Experimental detail provided in supplemental data.\n1 million 4T-1 mouse mammary carcinoma cells suspended in 100 µL PBS were injected per left flank of 5-6 week old Balb/C (Charles River, Wilmington Mass.). DTX was dissolved in pure Ethanol at a concentration of 50 mg/ml mixed 1:1 with Polysorbate 80 (Tween 80) and brought to a final working concentration with 5% glucose in PBS. Once Tumors became palpable (˜100 mm^3), DTX or vehicle treatments were administered at 100 μL volumes. Dasatinib was dissolved in DMSO to working concentration and delivered as 50 μL injections on indicated days, 50 µL DMSO used as a control in these studies. Tumor volumes were measured by a third party unaware of treatment conditions using digital calipers (Starlett, Athol, Mass.), volumes were assessed by the following formula: (Width×Width×length)/2 and expressed as relative volume increase from day 1. Tumor homogenate was prepared by homogenization of equal weight tissue sections incubated in 3×RIPA buffer containing 2× protease/phosphatase inhibitor cocktail (Thermo Fisher, Waltham, Mass.)."}, "[8]": {"system": "TNBC", "settings": "2011, cited from earlier work"}, "[9]": {"system": "MDA-MB-231 (231)", "assay": "CD44 surface expression by FACS in 231 cells", "format": "cell-based, human", "settings": "231 cells surviving 500 nM doxorubicin", "procedure": "MDA-MB-231, MDA-MB-468 were purchased from ATCC. For acute treatments, cells were plated at a density of 0.5-1×10^5 cells/ml and allowed to adhere for 24-48 hr. when cells reached ˜70% confluency they were treated with antitubulins at indicated concentrations for 4-24 hours and utilized for subsequent assays. To generate chemotherapy tolerant subset, cells were treated with indicated concentrations of chemotherapy (48). Following washes with PBS, adherent cells were trypsinized and re-plated at a density of 1.5-2×10^5 cells/ml and cultured in serum-containing medium. […]\nCells were cultured as indicated and fixed with 4% paraformaldehyde in PBS for 30 min at RT and blocked in 10% goat serum (v/v). Following PBS washes, cells were incubated with indicated antibodies for 60 minutes at room temperature or overnight at 4 C and analyzed by FACS (Accuri cyomteters Inc. Ann Arbor, Mich.). Cell cycle analyzed in propidium iodide solution following incubation in 70% Ethanol overnight at 4 C and following manufacturer protocol (Genscript USA Inc. Piscataway, N.J.). AnnexinV/PI was analyzed FACS following manufacturer protocol (BD, Ann Arbor Mich.). All FACS results were analyzed by FlowJo™ software following a rigorous doublet discrimination based on FSC:A vs. width as well as FSC:A vs. height (Tree Star Inc., Ashland Oreg.). […]"}, "[10]": {"system": "AKT and ezrin signaling", "assay": "Western blot of AKT, ezrin and ERM signaling in 468 cells treated with DTX +/- erlotinib", "format": "cell-based, human", "settings": "10 nM DTX +/- erlotinib, 24 h", "procedure": "MDA-MB-231 (ATCC) were cultured in DMEM containing 10% Fetal Bovine Serum (FBS), MDA-MB-468 MDA-MB-435 and 4T-1 mammary carcinoma cells (ATCC) were cultured in RPMI containing 10% FBS (Invitrogen, Carlsbad Calif.) at 37 C and 5% CO2. During treatments with chemotherapeutics, cells were grown to semi-confluence and treated with indicated concentrations of chemotherapy in serum-containing medium for indicated time points. When small molecule inhibitors were included in treatments, they were added simultaneously with chemotherapy. For siRNA gene knockdown, cells were plated at a concentration of 5×10^4 cells/ml. Pre-validated Silencer Select siRNA targeting pan-CD44 (5′[…]tt3′) (SEQ ID NO: 38) or Ezrin (5′[…]tt3′) (SEQ ID NO: 39) were purchased from Ambion (Invitrogen, Grand Island, N.Y.). siRNA plasmids were transfected using lipofectamine 2000 (Invitrogen, Carlsbad Calif.) following manufacturer protocol and cultured for 72 hours prior to treatment. Scrambled siRNA was used as a control.\nLaemli sample buffer was prepared as a 5× solution containing β-mercaptoethanol as a reducing agent. […] Optical densities of western blots were measured using ImageJ™ open source software (National Institutes of Health) and validated using Adobe CS5™."}}, "data": [{"smiles": "Oc1cccc(-c2nc(N3CCOCC3)c3oc4ncccc4c3n2)c1", "note": "[PI103]", "values": [{"measurement": "cell death in the DTC subset, combination", "setting": "[1]", "result": "synergistic induction of cell death"}]}, {"smiles": "CC(C)(C)n1nc(-c2ccc(Cl)cc2)c2c(N)ncnc21", "note": "[PP2]", "values": [{"measurement": "cell viability of DTC, SFK and BCR-Abl inhibition separately and in combination", "setting": "[2]", "result": "dual inhibition does not further augment the sensitivity of the DTC population"}]}, {"smiles": "CO[C@H]1C(=O)[C@]2(C)[C@@H](OC)C[C@H]3OC[C@@]3(OC(C)=O)[C@H]2[C@H](OC(=O)c2ccccc2)[C@]2(O)C[C@H](OC(=O)[C@H](O)[C@@H](NC(=O)OC(C)(C)C)c3ccccc3)C(C)=C1C2(C)C", "note": "[cabazitaxel]", "values": [{"measurement": "susceptibility of DTC to chemotherapy vs parent cell", "setting": "[3]", "result": "insensitive"}]}, {"smiles": "Cc1nc(Nc2ncc(C(=O)Nc3c(C)cccc3Cl)s2)cc(N2CCN(CCO)CC2)n1", "note": "[dasatinib]", "values": [{"measurement": "sensitivity (SI) of 231Phenocopy", "setting": "[2]; 231Phenocopy vs 231 parent", "result": "regained parental sensitivity"}, {"measurement": "Sensitivity index (SI)", "setting": "[2]; DTC vs parental cell line, 48 h, average viability across 10 nM, 100 nM, 1000 nM and 10 μM", "result": "> 1"}, {"measurement": "dasatinib sensitivity-index in additional DTC subsets", "setting": "[4]", "result": "consistent in additional DTC subsets derived from multiple cancer types"}, {"measurement": "AKT signaling (phosphorylated Akt, western blot)", "setting": "[5]", "result": "reduced, to a minor degree, AKT signaling"}, {"measurement": "apoptosis, cleaved caspase 3 (IHC)", "setting": "[6]", "result": "could re-sensitize the refractory cancer tissue to chemotherapy"}, {"measurement": "caspase 8 levels", "setting": "[6]", "result": "no change"}, {"measurement": "tumor growth rate (specific growth rate)", "setting": "[7]; 'Early Dasatinib', given 72 hours following DTX", "result": "significantly augmented the reversal of tumor growth rate"}, {"measurement": "tumor growth rate (specific growth rate)", "setting": "[7]; 'Late Dasatinib', 216 hours following DTX", "result": "ineffective"}, {"measurement": "relative tumor volume", "setting": "[7]; early treatment group after DTX", "result": "tumor regression could be achieved"}, {"measurement": "relative tumor volume", "setting": "[7]; late treatment after DTX vs matched vehicle control", "result": "no difference over a matched vehicle control"}, {"measurement": "cell death in the DTC subset, combination", "setting": "[1]", "result": "synergistic induction of cell death"}, {"measurement": "clinical efficacy as single-agent in TNBC", "setting": "[8]; Finn et al.", "result": "failed as a single-agent"}, {"measurement": "toxicity in clinical trials", "setting": "[8]; Herold et al.", "result": "significant toxic burden"}]}, {"smiles": "COc1cccc2c1C(=O)c1c(O)c3c(c(O)c1C2=O)C[C@@](O)(C(=O)CO)C[C@@H]3O[C@H]1C[C@H](N)[C@H](O)[C@H](C)O1", "note": "[doxorubicin]", "values": [{"measurement": "susceptibility of DTC to chemotherapy vs parent cell", "setting": "[3]", "result": "acquired resistance"}, {"measurement": "CD44 expression of doxorubicin tolerant cells (Dox-TC)", "setting": "[9]", "result": "robust expression of CD44"}]}, {"smiles": "C#Cc1cccc(Nc2ncnc3cc(OCCOC)c(OCCOC)cc23)c1", "note": "[erlotinib]", "values": [{"measurement": "ERM-complex signaling", "setting": "[10]", "result": "remained intact"}, {"measurement": "induction of AKT and ezrin signaling in response to chemotherapy", "setting": "[10]", "result": "prevented induction of AKT and ezrin signaling"}]}, {"smiles": "Cc1ccc(NC(=O)c2ccc(CN3CCN(C)CC3)cc2)cc1Nc1nccc(-c2cccnc2)n1", "note": "[imatinib]", "values": [{"measurement": "cell viability of DTC, SFK and BCR-Abl inhibition separately and in combination", "setting": "[2]", "result": "dual inhibition does not further augment the sensitivity of the DTC population"}]}]}
